Several values for one entry are separate records, joined by “and”; a condition that tells them apart may be missing. Identical values can stand only once. Toxic doses and inconclusive results are not listed.
Tested on: L1210 leukemia ip in BDF1 mice, survival T/C
Assay: NCI In Vivo Anticancer Drug Screen. Data for tumor model L1210 Leukemia (intraperitoneal) in B6D2F1 (BDF1) mice
Details: endpoint: mean survival time, higher = longer survival
Outline: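 Survival endpoint. Drug-treated group vs vehicle group, expressed as T divided by C. Tumor passaged by transplantation.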

[1] = dose: 100.0 mg/kg/injection, schedule: Q04DX003 (ip), vehicle: Klucel (hydroxypropylcellulose) (HPC)
[2] = dose: 200.0 mg/kg/injection, schedule: Q04DX003 (ip), vehicle: Klucel (hydroxypropylcellulose) (HPC)
[3] = dose: 400.0 mg/kg/injection, schedule: Q04DX003 (ip), vehicle: Klucel (hydroxypropylcellulose) (HPC)
[4] = dose: 50.0 mg/kg/injection, schedule: Q01DX001 (ip), vehicle: saline
[5] = dose: 100.0 mg/kg/injection, schedule: Q01DX001 (ip), vehicle: saline
[6] = dose: 200.0 mg/kg/injection, schedule: Q01DX001 (ip), vehicle: saline
[7] = dose: 400.0 mg/kg/injection, schedule: Q01DX001 (ip), vehicle: saline
[8] = dose: 100.0 mg/kg/injection, schedule: Q01DX001 (ip), vehicle: carboxymethylcellulose (CMC)
[9] = dose: 200.0 mg/kg/injection, schedule: Q01DX001 (ip), vehicle: carboxymethylcellulose (CMC)
[10] = dose: 400.0 mg/kg/injection, schedule: Q01DX001 (ip), vehicle: carboxymethylcellulose (CMC)
[11] = dose: 100.0 mg/kg/injection, schedule: Q01DX009 (ip), vehicle: saline
[12] = dose: 200.0 mg/kg/injection, schedule: Q01DX009 (ip), vehicle: saline
[13] = dose: 400.0 mg/kg/injection, schedule: Q01DX009 (ip), vehicle: saline
[14] = dose: 100.0 mg/kg/injection, schedule: Q04DX002 (ip), vehicle: Klucel (hydroxypropylcellulose) (HPC)
[15] = dose: 200.0 mg/kg/injection, schedule: Q04DX002 (ip), vehicle: Klucel (hydroxypropylcellulose) (HPC)
[16] = dose: 100.0 mg/kg/injection, schedule: Q04DX003 (ip), vehicle: saline with Tween-80
[17] = dose: 200.0 mg/kg/injection, schedule: Q04DX003 (ip), vehicle: saline with Tween-80

COC(=O)CC(=O)c1ccc(OCCOc2ccc(C(C)(C)CC(C)(C)C)cc2)c([N+](=O)[O-])c1
T/C (dose: 100.0 mg/kg/injection, schedule: Q01DX009 (ip), vehicle: saline sonified): 91 % of control | T/C [1]: 93 % of control | T/C (dose: 200.0 mg/kg/injection, schedule: Q01DX009 (ip), vehicle: saline sonified): 96 % of control | T/C [2]: 96 % of control | T/C (dose: 400.0 mg/kg/injection, schedule: Q01DX009 (ip), vehicle: saline sonified): 95 % of control | T/C [3]: 93 % of control

CCCCSc1nc(NC(C)C)nc(NC(C)C)n1
T/C (dose: 100.0 mg/kg/injection, schedule: Q04DX002 (sc), vehicle: olive oil, sesame oil, peanut oil): 118 % of control | T/C (dose: 200.0 mg/kg/injection, schedule: Q04DX002 (sc), vehicle: olive oil, sesame oil, peanut oil): 115 % of control | T/C (dose: 400.0 mg/kg/injection, schedule: Q04DX002 (sc), vehicle: olive oil, sesame oil, peanut oil): 101 % of control

COc1cc(CC(=O)C2CN(C(=O)Cc3cc(Cl)c(OC)c(OC)c3)c3ccc(Br)cc32)cc(Cl)c1OC (stereo not drawn)
T/C [4]: 96 % of control | T/C [5]: 96 % of control | T/C [6]: 90 % of control | T/C [7]: 93 % of control

C[N+](C)(C)c1ccc(/C(C#N)=N/O)cc1
T/C (dose: 12.5 mg/kg/injection, schedule: Q01DX009 (ip), vehicle: Klucel (hydroxypropylcellulose) (HPC)): 101 % of control | T/C (dose: 25.0 mg/kg/injection, schedule: Q01DX009 (ip), vehicle: Klucel (hydroxypropylcellulose) (HPC)): 100 % of control

CN(C)C(C(N)=O)C(=O)c1ccccc1 (stereo not drawn)
T/C [5]: 102 % of control | T/C [6]: 104 % of control | T/C [7]: 88 % of control

COc1cc([N+](=O)[O-])ccc1NC(=O)Nc1cc(C)ccn1
T/C (dose: 100.0 mg/kg/injection, schedule: Q01DX009 (ip), vehicle: Klucel (hydroxypropylcellulose) (HPC)): 100 % of control | T/C (dose: 200.0 mg/kg/injection, schedule: Q01DX009 (ip), vehicle: Klucel (hydroxypropylcellulose) (HPC)): 93 % of control

Nc1nc(-c2ccccc2)c(CCCNC(=O)c2ccc([N+](=O)[O-])cc2)c(=O)[nH]1
T/C [1]: 93 % of control | T/C [2]: 93 % of control | T/C [3]: 90 % of control

CCOP(=O)(OCC)OCc1ccccc1
T/C (dose: 12.5 mg/kg/injection, schedule: Q04DX003 (ip), vehicle: saline with Tween-80): 98 % of control

COC(=O)c1cc(C)cc(N2c3ccccc3-c3cc(C)ccc3S2(=O)=O)c1C
T/C [8]: 104 % of control | T/C [9]: 102 % of control | T/C [10]: 96 % of control

O=C(O)CC(C(=O)O)C1C=CCC1 (stereo not drawn)
T/C [11]: 97 % of control | T/C [12]: 115 % of control | T/C [13]: 101 % of control

O=S(=O)(CBr)C1C2C=CC(C2)C1c1ccccc1 (stereo not drawn)
T/C [14]: 106 % of control | T/C [15]: 106 % of control | T/C (dose: 400.0 mg/kg/injection, schedule: Q04DX002 (ip), vehicle: Klucel (hydroxypropylcellulose) (HPC)): 97 % of control

N#Cc1ccsc1C#N
T/C (dose: 100.0 mg/kg/injection, schedule: Q04DX003 (ip), vehicle: acetone): 109 % of control

O=c1cnc2ccccc2[nH]1
T/C [16]: 108 % of control | T/C [17]: 97 % of control

CCOC(=O)c1cccnc1NC(=O)c1ccccc1
T/C (dose: 50.0 mg/kg/injection, schedule: Q04DX002 (ip), vehicle: Klucel (hydroxypropylcellulose) (HPC)): 97 % of control | T/C [14]: 97 % of control and 103 % of control | T/C [15]: 100 % of control and 101 % of control | T/C (dose: 800.0 mg/kg/injection, schedule: Q04DX002 (ip), vehicle: Klucel (hydroxypropylcellulose) (HPC)): 105 % of control

CCC([N+](=O)[O-])S(=O)(=O)c1ccc(C)cc1 (stereo not drawn)
T/C [5]: 98 % of control | T/C [11]: 98 % of control | T/C (dose: 100.0 mg/kg/injection, schedule: Q04DX003 (ip), vehicle: saline): 102 % of control | T/C [6]: 95 % of control | T/C [12]: 94 % of control and 95 % of control | T/C (dose: 200.0 mg/kg/injection, schedule: Q04DX003 (ip), vehicle: saline): 100 % of control | T/C [7]: 93 % of control | T/C [13]: 93 % of control and 103 % of control | T/C (dose: 400.0 mg/kg/injection, schedule: Q04DX003 (ip), vehicle: saline): 94 % of control

O=C(/C=C\c1ccc(/C=C/C(=O)Nc2cccc(C3=NCCCN3)c2)cc1)Nc1cccc(C2=NCCCN2)c1
T/C (dose: 0.62 mg/kg/injection, schedule: Q01DX Z (ip), vehicle: carboxymethylcellulose (CMC)): 117 % of control | T/C (dose: 5.0 mg/kg/injection, schedule: Q01DX Z (ip), vehicle: carboxymethylcellulose (CMC)): 225 % of control | T/C (dose: 12.5 mg/kg/injection, schedule: Q01DX Z (oral), vehicle: carboxymethylcellulose (CMC)): 103 % of control | T/C (dose: 25.0 mg/kg/injection, schedule: Q01DX Z (oral), vehicle: carboxymethylcellulose (CMC)): 103 % of control | T/C (dose: 50.0 mg/kg/injection, schedule: Q01DX Z (oral), vehicle: carboxymethylcellulose (CMC)): 102 % of control | T/C (dose: 100.0 mg/kg/injection, schedule: Q01DX Z (oral), vehicle: carboxymethylcellulose (CMC)): 97 % of control

Cc1ccc2c(ccc(/C=C/c3ccc(O)c4ccccc34)[n+]2C)c1
T/C (dose: 75.0 mg/kg/injection, schedule: Q01DX001 (ip), vehicle: carboxymethylcellulose (CMC)): 95 % of control | T/C (dose: 150.0 mg/kg/injection, schedule: Q01DX001 (ip), vehicle: carboxymethylcellulose (CMC)): 97 % of control | T/C (dose: 300.0 mg/kg/injection, schedule: Q01DX001 (ip), vehicle: carboxymethylcellulose (CMC)): 96 % of control

O=C(CCCc1ccc(N(CCCl)CCCl)cc1)NCc1ccccc1
T/C (dose: 4.0 mg/kg/injection, schedule: Q12HX018 (ip), vehicle: other): 112 % of control | T/C (dose: 6.0 mg/kg/injection, schedule: Q12HX018 (ip), vehicle: other): 103 % of control | T/C (dose: 8.0 mg/kg/injection, schedule: Q12HX018 (ip), vehicle: other): 108 % of control

Cc1nc(N)[nH]c(=O)c1N=Nc1ccc(S(=O)(=O)O)cc1
T/C [4]: 98 % of control | T/C [5]: 98 % of control | T/C [6]: 104 % of control

C[Si]1(C)CCCSC1
T/C [5]: 93 % of control | T/C [6]: 96 % of control | T/C [7]: 97 % of control

CCCCCCCCCCCCCCCCS(=O)(=O)Nc1cc(C(=O)NN)cc(C(=O)NN)c1
T/C [16]: 90 % of control | T/C [17]: 86 % of control | T/C (dose: 400.0 mg/kg/injection, schedule: Q04DX003 (ip), vehicle: saline with Tween-80): 88 % of control

O=S(=O)(O)c1ccc(S)cc1
T/C (dose: 75.0 mg/kg/injection, schedule: Q01DX001 (ip), vehicle: other): 117 % of control

Clc1ccc(Sc2ccccc2)cc1
T/C [1]: 105 % of control | T/C [2]: 88 % of control | T/C [3]: 105 % of control

C=CCOc1cc(C)ccc1C
T/C [8]: 98 % of control | T/C [9]: 95 % of control | T/C [10]: 98 % of control

CCOC(=O)C(OCc1ccccc1)(C(=O)Cl)C(C)C (stereo not drawn)
T/C (dose: 6.25 mg/kg/injection, schedule: Q01DX009 (ip), vehicle: saline with Tween-80): 98 % of control | T/C (dose: 6.25 mg/kg/injection, schedule: Q04DX003 (ip), vehicle: saline): 93 % of control | T/C (dose: 12.5 mg/kg/injection, schedule: Q01DX009 (ip), vehicle: saline with Tween-80): 100 % of control | T/C (dose: 12.5 mg/kg/injection, schedule: Q04DX003 (ip), vehicle: saline): 97 % of control | T/C (dose: 25.0 mg/kg/injection, schedule: Q01DX009 (ip), vehicle: saline with Tween-80): 98 % of control | T/C (dose: 25.0 mg/kg/injection, schedule: Q04DX003 (ip), vehicle: saline): 92 % of control | T/C (dose: 50.0 mg/kg/injection, schedule: Q04DX003 (ip), vehicle: saline): 103 % of control

C[C-]=O.C[C-]=O.[Br][Pd][Br]
T/C (dose: 100.0 mg/kg/injection, schedule: Q01DX001 (ip), vehicle: saline with Tween-80): 97 % of control | T/C (dose: 200.0 mg/kg/injection, schedule: Q01DX001 (ip), vehicle: saline with Tween-80): 100 % of control | T/C (dose: 400.0 mg/kg/injection, schedule: Q01DX001 (ip), vehicle: saline with Tween-80): 107 % of control

O=C(O)c1cc(Br)cc(Br)c1O
T/C [5]: 123 % of control | T/C (dose: 100.0 mg/kg/injection, schedule: Q04DX002 (ip), vehicle: saline with Tween-80): 91 % of control | T/C [6]: 105 % of control | T/C (dose: 200.0 mg/kg/injection, schedule: Q04DX002 (ip), vehicle: saline with Tween-80): 100 % of control | T/C [7]: 109 % of control | T/C (dose: 400.0 mg/kg/injection, schedule: Q04DX002 (ip), vehicle: saline with Tween-80): 88 % of control

From PubChem BioAssay AID248 (DTP/NCI, 2004)
